The target of this test is T1, factor IXa (Homo sapiens, UniProt P00740).
T1 construct: heavy chain of factor IXa comprised of residues 181–415; light chain of factor IXa comprised of residues 1–145
The test can be described thus: Factor IX peptide competition assay in the absence of factor VIIIa. Format: biochemical. The procedure: Each reaction mixture contained 20 nM of factor IXa, 100 nM of factor X, various concentrations of peptide, 25 μM of phospholipid, and 5 mM CaCl2 in TBS/BSA. The reaction mixtures were incubated for 2.5, 5, 10, 15, and 20 minutes at 37° C. and were stopped with the addition of 1.5 μL of 0.5 M EDTA and placed on ice. Forty μL of each reaction was 5 added to 100 μL of TBS/BSA in a 96 well microtiter plate and S-2222 was added to a final concentration of 100 μM.

This note sets out measurements from patent US7109170B2, “Region of factor IXa protease domain that interacts with factor VIIIa and methods therefor” (Saint Louis University, priority 1999, dated 2006).

Molecules are shown by their SMILES. Peptide text beside a SMILES is read from it.

`CC(C)C[C@H](N)C(=O)N[C@H](C(=O)N[C@@H](CC(=O)O)C(=O)N[C@@H](CCCNC(=N)N)C(=O)N[C@@H](C)C(=O)N[C@H](C(=O)O)[C@@H](C)O)C(C)C` [Protein P-4351, LVDRAT] (H-LVDRAT-OH; N-terminus and C-terminus assumed): the “inhibitory effect on factor IXa's ability to activate factor X” value was “no inhibitory effect”.
